Data on eleven compounds can be found in ChEMBL document CHEMBL1201862, “PubChem BioAssay data set” (2004).

What all share (experiment): NCI anticancer screen, dose series, 48 h
Experiment [1] deals with M14.
The subject of experiment [2] is TK-10.
Experiment [3] has as its system SNB-75.
In experiment [4] the test system is CCRF-CEM.
Experiment [5] relates to SN12C.
The test system of experiment [6] is OVCAR-8.
Experiment [7] deals with CAKI-1.
In experiment [8] the test system is MOLT-4.
The subject of experiment [9] is SF-295.
Experiment [10] deals with U-251.
In experiment [11] the test system is HCT-15.
Experiment [12] has as its system SK-MEL-2.
The subject of experiment [13] is UACC-62.
Experiment [14] has as its system NCI-H460.
Experiment [15] has as its system UACC-257.
Experiment [16] deals with SW-620.
Experiment [17] relates to A549.
Experiment [18] has as its system UO-31.

Molecules are shown by their SMILES.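 Results reflect a 48-hour exposure of cells in 96-well plates to compound at five concentrations. Here, GI50 denotes the concentration required for 50% inhibition of growth.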 Active and inactive are the calls of the source. No stated cut-off is given here; in the data, active = GI50 up to about 1.1 µM and inactive = higher. Some results are limits rather than exact numbers.

For `O=C1CCCc2ccc([N+](=O)[O-])c(O)c21`, the GI50 in [1] is > 100 µM (inactive); in [2], 55.7 µM (inactive); in [3], 45.6 µM (inactive); in experiment [4], > 100 µM (inactive); in experiment [5], 65 µM (inactive); in experiment [6], > 100 µM (inactive). In addition, the GI50 is 37.9 µM (inactive) in experiment [7]; > 100 µM (inactive) in [8]; > 100 µM (inactive) in experiment [9]; 59.3 µM (inactive) in [10]; 72.9 µM in experiment [11]; 39 µM (inactive) in experiment [12]. For the same compound, the GI50 in experiment [13] was 54.6 µM (inactive); in experiment [14], > 100 µM (inactive); in experiment [15], > 100 µM (inactive); in experiment [16], > 100 µM (inactive); in experiment [17], 96.2 µM (inactive); in experiment [18], 34.8 µM (inactive).

For `Cc1cc(NS(=O)(=O)c2ccc(Nc3c4ccccc4nc4c(C(=O)Nc5ccc(S(N)(=O)=O)cc5)cccc34)cc2)no1`, the GI50 was > 100 µM (inactive) in [1]; > 100 µM (inactive) in [2]; 72.8 µM (inactive) in [3]; 26.5 µM (inactive) in experiment [4]; 36.2 µM (inactive) in [5]; 51.9 µM (inactive) in experiment [6]. For the same compound, the GI50 in experiment [7] was > 100 µM (inactive); in [8], 27 µM (inactive); in [9] it was > 100 µM (inactive); in experiment [10], 24.8 µM (inactive); in experiment [11], greater than 100 µM; in experiment [12], 24.1 µM (inactive). In addition, the GI50 in experiment [13] was 24.8 µM (inactive); in experiment [14], > 100 µM (inactive); in experiment [15], > 100 µM (inactive); in experiment [16] it was 74.3 µM (inactive); in experiment [17] it was > 100 µM (inactive); in [18] it was 80.9 µM (inactive).

On to `C/C(CC(=O)Nc1cccc(C)c1C)=N\NC(N)=S`, for which the GI50 was > 100 µM (inactive) in [1]; > 100 µM (inactive) in [2]; > 100 µM (inactive) in experiment [3]; 74.3 µM (inactive) in experiment [4]; > 100 µM (inactive) in [5]; > 100 µM (inactive) in experiment [6]. Further, the GI50 in experiment [7] was > 100 µM (inactive); in [8], > 100 µM (inactive); in [9] it was > 100 µM (inactive); in [10] it was > 100 µM (inactive); in experiment [11], 41.8 µM; in experiment [12], > 100 µM (inactive). The GI50 in experiment [13], in [14], in [15], in experiment [17] and in experiment [18] was > 100 µM (inactive) throughout.

Take `COc1nc(=O)cc(N)n1C1OC(CO)C(O)C1O` (stereo not given): the GI50 in experiment [1], in [2], in [3], in experiment [4], in [5] and in experiment [6] was > 100 µM (inactive) throughout. In addition, the GI50 in experiment [7] was > 100 µM (inactive); in [8] it was > 100 µM (inactive); in [9], > 100 µM (inactive); in experiment [10] it was > 100 µM (inactive); in [11], greater than 100 µM; in experiment [12], > 100 µM (inactive). Also, the GI50 in experiment [13], in experiment [14], in experiment [15], in experiment [16], in [17] and in experiment [18] was > 100 µM (inactive) in each case.

`c1ccc2c(c1)c1ccccc1c1n[se]nc21`: the GI50 is > 100 µM (inactive) in experiment [1]; 48.4 µM (inactive) in experiment [2]; 28.1 µM (inactive) in experiment [3]; > 100 µM (inactive) in experiment [4]; > 100 µM (inactive) in experiment [5]; 50.2 µM (inactive) in experiment [6]. The GI50 in experiment [7] was 36.5 µM (inactive); in [8], > 100 µM (inactive); in experiment [9], 43.9 µM (inactive); in experiment [10] it was > 100 µM (inactive); in experiment [11], greater than 100 µM; in [12], > 100 µM (inactive). The GI50 in experiment [13] is > 100 µM (inactive); in experiment [14] it was 75.3 µM (inactive); in experiment [15], > 100 µM (inactive); in experiment [16] it was > 100 µM (inactive); in experiment [17], 52.6 µM (inactive); in experiment [18], 33.1 µM (inactive).

With `CC(C)(C)C1CCC2c3c([nH]c4ccccc34)C3C(=O)N(c4ccc(Br)cc4)C(=O)C3C2C1` (stereo not given), the GI50 in [1] is 26.1 µM (inactive); in experiment [2], 20.5 µM (inactive); in experiment [3] it was 19.5 µM (inactive); in [4], 16.7 µM (inactive); in experiment [5], 11.4 µM (inactive); in experiment [6] it was 21.7 µM (inactive). Further, the GI50 in experiment [7] was 19.9 µM (inactive); in experiment [8], 9.64 µM (inactive); in [9] it was 25 µM (inactive); in [11], 13.7 µM; in experiment [12] it was 19 µM (inactive); in experiment [13] it was 26.9 µM (inactive). The GI50 was 17.7 µM (inactive) in [14]; 17.8 µM (inactive) in [15]; 19.8 µM (inactive) in experiment [16]; 17.7 µM (inactive) in experiment [17]; 14.2 µM (inactive) in experiment [18].

Regarding `COC(=O)c1cccc2cccc(C(=O)Nc3ccc(Cl)cc3)c12`, the GI50 was 0.951 µM (active) in experiment [1]; > 100 µM (inactive) in [2]; > 100 µM (inactive) in experiment [3]; 2.26 µM (inactive) in experiment [4]; > 100 µM (inactive) in experiment [5]; > 79.8 µM (inactive) in experiment [6]. The GI50 is > 100 µM (inactive) in experiment [7]; 3.1 µM (inactive) in experiment [8]; 1.72 µM (inactive) in experiment [9]; 39.7 µM (inactive) in [10]; greater than 35.2 µM in experiment [11]; 1.84 µM (inactive) in experiment [12]. Also, the GI50 in [13] was 0.153 µM (active); in experiment [14], 10.3 µM (inactive); in experiment [15], > 100 µM (inactive); in [16], 11.4 µM (inactive); in [17] it was > 78.2 µM (inactive); in [18], 2.94 µM (inactive).

With `C#CCN(N=O)C(=O)NCCCCC(NC(=O)OCc1ccccc1)C(=O)OCc1ccccc1` (stereo not given), the GI50 is 27 µM (inactive) in [1]; > 100 µM (inactive) in experiment [2]; 46.3 µM (inactive) in [3]; 19.3 µM (inactive) in [4]; 37.8 µM (inactive) in experiment [5]; 38.9 µM (inactive) in experiment [6]. Moreover, the GI50 in experiment [7] is 24 µM (inactive); in experiment [8], 20.7 µM (inactive); in experiment [9], > 100 µM (inactive); in experiment [10], 48.9 µM (inactive); in experiment [11], 33.7 µM; in experiment [12] it was 40 µM (inactive). For the same compound, the GI50 in [13] was 30.6 µM (inactive); in [14], 98.2 µM (inactive); in [15], 37.2 µM (inactive); in experiment [16] it was 17.4 µM (inactive); in [18] it was > 100 µM (inactive).

`CC(C)c1ccc(C2C3=C(N=C4SCC(=O)N42)C(=O)c2ccccc23)cc1` (stereo not given): the GI50 is > 100 µM (inactive) in experiment [1]; > 100 µM (inactive) in [2]; 22.3 µM (inactive) in experiment [3]; 57.3 µM (inactive) in [4]; 41 µM (inactive) in experiment [5]; > 100 µM (inactive) in experiment [6]. Besides, the GI50 was 99.1 µM (inactive) in experiment [7]; 49.7 µM (inactive) in experiment [8]; 82.8 µM (inactive) in [9]; 74 µM (inactive) in [10]; 88.9 µM in experiment [11]; > 100 µM (inactive) in experiment [12]. Also, the GI50 was 33.7 µM (inactive) in experiment [13]; > 100 µM (inactive) in [14]; > 100 µM (inactive) in [15]; > 100 µM (inactive) in experiment [16]; 58.9 µM (inactive) in experiment [17]; 5.6 µM (inactive) in [18].

Take `CC1OC(n2cc(Cl)c(=O)[nH]c2=O)C=C(OC(=O)c2ccccc2)C1=O` (stereo not given): the GI50 in experiment [1], in experiment [2], in experiment [3], in experiment [4], in [5] and in experiment [6] was > 100 µM (inactive) each time. Also, the GI50 in experiment [7] was > 100 µM (inactive); in experiment [8] it was > 100 µM (inactive); in [9], > 100 µM (inactive); in experiment [10], > 100 µM (inactive); in [11], greater than 100 µM; in experiment [12] it was > 100 µM (inactive). Further, the GI50 in [13], in experiment [14], in experiment [15], in experiment [16], in [17] and in experiment [18] was > 100 µM (inactive) in each case.

Take `Cc1noc2cccc(O)c12`: the GI50 in experiment [1], in experiment [2], in experiment [3], in experiment [4], in experiment [5] and in experiment [6] was > 100 µM (inactive) throughout. For the same compound, the GI50 in experiment [7] was > 100 µM (inactive); in experiment [8], > 100 µM (inactive); in experiment [9], > 100 µM (inactive); in experiment [10], > 100 µM (inactive); in [11] it was greater than 100 µM; in experiment [12], > 100 µM (inactive). For the same compound, the GI50 in experiment [13], in [14], in experiment [15], in experiment [16], in [17] and in [18] was > 100 µM (inactive) throughout.
